In patent publication US20230313146A1, “INTESTINAL EPITHELIAL CELL CULTURES” (ARDELYX, INC., priority 2017, published 2023):

Tests used:
Type in all cases: cell-based
[1] = tested on: human distal colonic cultures; experiment: Seeding media comparison in human distal colonic monolayer cultures (TEER, RNA profile); settings: thiazovivin substituted for Y-27632 in the seeding media (WENRAT)
Description: Organoids were typically grown for 7-12 days before being used to plate monolayer cultures. Organoid cultures embedded in Matrigel were broken apart in growth media and pooled in a 15 mL conical tube. The cells were centrifuged at 600×g for 3 minutes and resuspended in TrypLE Express and placed in a water bath at 37° C. for 3 minutes. The cells were then removed and pipetted up and down for 7 minutes. BM was added to quench the reaction, and the cell suspension was centrifuged at 600×g for 3 minutes, resuspended in BM, and counted.
Media conditions used for murine colon growth and differentiation were optimized for human distal colon cultures using the water-absorption phenotype characteristic of this segment. The effects of seeding and differentiation media alterations on human distal colon cultures were determined by comparing two seeding medias (WENRAT or WENRNicAST) and three differentiation medias (WENR, ENRA, and ENR). […] Murine colonic growth media (WENR) was altered by removing Wnt3a (W) to generated ENR media, or by removing Wnt3a (W) and adding A83-01 (A) (ENRA). Removal of Wnt3a and addition of A83-01 was necessary for proper differentiation of water-absorbing cultures (FIG. 9B and FIG. 8). […] However, the inclusion of Nic and SB202190 in the WENRNicAST seeding media further suppressed differentiation of secretory cells in human colonic cultures (FIG. 10). […]

[2] = tested on: K^+ absorption in mouse distal colonic cultures; experiment: Mouse distal colon K+ transport screening assay
Description: Ion transport was determined by sampling the apical and basolateral chambers of the Transwell and analyzing these samples on an ion chromatography system (Thermo Fisher ICS-3000 or ICS-5000+) coupled with conductivity detectors. Chromatographic separation of cations was performed using an IonPac CS12A (Dionex) 2×250 mm analytical column with an isocratic elution using 25 mM methanesulfonic acid. Chromatographic separation of anions was performed using an IonPac AS18 (Dionex) 2×250 mm analytical column with an isocratic elution using 35 mM potassium hydroxide. Concentrations were calculated relative to a standard curve for each analyte ion based on retention time and peak area.
An assay was established to measure K^+ transport in mouse distal colonic cultures. Mouse distal colonic monolayer cultures were prepared in 96-well Transwells according to protocol and were used for assay on day 6, 7, or 8 depending on the TEER value of the culture and its water-absorption phenotype. Wells with a TEER value below 450 Ω·cm^2 were not used for assay. […]
To start the assay, 80 μL of apical media was added to triplicate wells per compound and 130 μL of basolateral media was added to the basolateral compartment. […] K^+ and rubidium ion concentrations were determined using ion chromatography. […]

[3] = tested on: mouse duodenal, jejunal, and ileal cultures; experiment: Differentiation of mouse small intestinal monolayer cultures (global gene expression PCC versus tissue, TEER)
Description: Approximately 1 μg of the entire isolated RNA was used to prepare each RNA sequencing library. RNA libraries were prepared using the TruSeq Stranded mRNA library preparation kit (Illumina). Most sequencing data were obtained using a NextSeq500 sequencer (Illumina) (2×75 bp, ˜ 30-40 million reads per sample) and some sequencing was performed using a HiSeq sequencer (Illumina) (2×125 bp, ˜ 25-30 million reads per sample). Transcript counts were obtained using the RNA Express application (RNA-Seq reads aligned with the STAR aligner) on the Illumina BaseSpace website.
Pearson correlation coefficients were determined in Microsoft Excel using the Pearson function comparing the transcript count correlation for all genes between two data sets.
On day 2, fresh W2.5ENRY was added to the cultures, and was replaced on day 4. Confluence of the culture was assessed by measuring the TEER. […]
Therefore, global gene expression by RNA sequencing was obtained for 36 culture conditions, taken 4, 6, and 8 days after seeding the cultures, and compared with the gene expression profiles of mouse jejunal villi and crypts. To simplify analysis and to account for changes in global gene expression rather than relying on a handful of marker genes, the Pearson correlation coefficient (PCC) was calculated for the relationship between the gene expression profiles of cultured cells and of mouse jejunal villus cells. […]

O=C(NCc1ccccc1)c1csc(Nc2ccncn2)n1 [thiazovivin]
TEER of human colonic cultures [1]: higher TEER values | secretory cell differentiation [1]: some suppression of secretory cell differentiation

[O]=[V]([O-])([O-])[O-] [vanadate]
block of K^+ absorption ([2]; 200 μM vanadate, mouse distal colonic cultures): block K^+ absorption completely | Inhibition of K^+ absorption normalized to the mean value of vanadate controls (mean±SD) ([2]; vanadate controls, 200 μM, value of 1 = inhibition equivalent to vanadate): 1.00±0.15

B1: BMP 4: mouse BMP-4 (Peprotech), bone morphogenetic protein used as differentiation promoting factor (protein, UniProt P21275 293-408, looked up)
Bone morphogenetic protein 4: SPKHHPQRSRKKNKNCRRHSLYVDFSDVGWNDWIVAPPGYQAFYCHGDCPFPLADHLNSTNHAIVQTLVNSVNSSIPKACCVPTELSAISMLYLDEYDKVVLKNYQEMVVEGCGCR
correlation of gene expression of cultures with tissues in the jejunum and ileum (PCC) ([3]; 300 ng/mL, dose titration of individual BMPs): strong correlations of gene expression | effectiveness at differentiating mouse duodenal, jejunal, and ileal cultures ([3]; compared with the BMP mixture (BMP 2, 4, and 7)): as effective as the BMP mixture
